Source: patent publication US20190343822A1, “TREATMENT FOR GLAUCOMA” (INDIANA UNIVERSITY RESEARCH AND TECHNOLOGY CORPORATION, priority 2018, published 2019)

How the values were obtained:
mice [1] = assay: Intraocular pressure (IOP) in mice by rebound tonometry (Tonolab); format: in vivo
Procedure: IOP was measured in mice by rebound tonometry, using a Tonolab (Icare Finland Oy, Helsinki, Finland). This instrument uses a light plastic-tipped probe to briefly make contact with the cornea; after the probe encounters the eye the instrument measures the speed at which the probe rebounds in order to calculate IOP.
(§1) To obtain reproducible IOP measurements, mice were anesthetized with isoflurane (3% induction). The anesthetized mouse was then placed on a platform in a prone position, where anesthesia was maintained with 2% isoflurane. Baseline fop measurements are taken in both eyes. A ‘measurement’ included the average value of six readings. One eye was then treated with drug (dissolved in Tocrisolve (Tocris Biosciences), a soya-based solvent, 5 μL final volume, applied topically) while the other eye was treated with vehicle. The animal was then allowed to recover. After an hour the animal was again anesthetized as above. IOP was then measured in the drug-treated and vehicle-treated contralateral eye.
IOP measurements following drug administration were analyzed by paired t-tests comparing drug-treated eyes to contralateral vehicle-treated eyes. Where animals were injected with drug, ocular pressures of animals were compared with those of vehicle-injected animals and compared using an unpaired t-test.

[2] = Observation of signs of irritation after 7 days of daily topical treatment; format: in vivo, mice; details: after the 7 days of daily treatment, SR141716 1 mM topical
Procedure: as §1
The outcome of repeated daily treatment with SR1 was tested separately. […] The IOP was also lower in the vehicle treated eye but this difference was not statistically significant.

mice [3] = assay: Intraocular pressure (IOP) in mice by rebound tonometry (Tonolab); format: in vivo; remark: listed apart in the source

Structure (SMILES)	IOP (mm Hg±SEM) 1 hour after intraperitoneal injection (mice [1]; PSNCBAM1 4 mg/kg IP, 1 hour, n=16, baseline IOP 19.6±0.4, p<0.005, FIG. 3B)	IOP (mm Hg±SEM) in drug-treated eye after topical treatment (mice [1]; PSNCBAM1 5 mM topical, WT mice, n=8, not significant vs vehicle-treated eye 17.4±0.7, FIG. 3A)	Effect of intraperitoneal injection on ocular pressure (mice [1]; intraperitoneal injection, FIG. 3B)	Effect of topical treatment on ocular pressure relative to the contralateral eye (mice [1]; topical, WT mice, FIG. 3A)	Δ IOP±SEM, effect in drug-treated eye after seven days of daily treatment (mice [1]; SR141716 1 mM topical, 7th day of daily treatment, n=8, p<0.005, FIG. 4C)	Δ IOP±SEM, effect at 1 day in drug-treated eye (mice [1]; SR141716 1 mM topical, day 1 of daily treatment, n=8, FIG. 4C)	Effect on intraocular pressure at midday, standard light cycle (mice [1]; SR141716 1 mM, midday, mice in standard light cycle, FIG. 1B)	Effect on intraocular pressure at midnight, reverse light cycle (mice [1]; SR141716 1 mM, midnight, mice in reverse light cycle)	Effect of daily treatments on ocular pressure (mice [1]; daily treatments over 7 days, FIG. 2C)	Signs of irritation [2]	Δ IOP±SEM, drug-treated eye before 7th treatment (24 hours after 6th daily treatment) (mice [3]; SR141716 1 mM topical daily, 7 days, drug-treated eye, n=8, p<0.05, FIG. 4B)	Δ IOP±SEM, effect at 24 hrs after a single treatment (mice [3]; SR141716 1 mM topical, single treatment, 24 hrs, n=16, FIG. 4A)	Δ IOP±SEM, effect at 48 hrs after a single treatment (mice [3]; SR141716 1 mM topical, single treatment, 48 hrs, n=16, p<0.005, FIG. 4A)
O=C(Nc1ccc(Cl)cc1)Nc1cccc(-c2cccc(N3CCCC3)n2)c1 [PSNCBAM1, 1-(4-chlorophenyl)-3-(3-(6-(pyrrolidin-1-yl)pyridin-2-yl)phenyl)urea]	17.3±0.5 mm Hg	18.0±0.6 mm Hg	lowered ocular pressure	did not lower ocular pressure	–	–	–	–	–	–	–	–	–
Cc1c(C(=O)NN2CCCCC2)nn(-c2ccc(Cl)cc2Cl)c1-c1ccc(Cl)cc1 [SR141716, 5-(4-Chlorophenyl)-1-(2,4-dichloro-phenyl)-4-methyl-N-(piperidin-1-yl)-1H-pyrazole-3-carboxamide]	–	–	–	–	−4.6±0.9 mm Hg	−2.8±0.6 mm Hg	raised intraocular pressure	reduced intraocular pressure	sustained lower ocular pressure	No signs of irritation were observed	−2.9±1.0 mm Hg	−0.3±0.3 mm Hg	+2.0±0.6 mm Hg
